Assay results: patent US20240109903A1, “SUBSTITUTED HETEROCYCLES FOR TREATING CANCER” (Northwestern University, priority 2022, published 2024)

Experiments:
KM12 = assay: NCI 60 five-dose screen KM12; type: cell-based; settings: Homo sapiens, five-dose
OVCAR-8 = assay: NCI 60 five-dose screen OVCAR-8; type: cell-based; settings: Homo sapiens, five-dose
CAKI-1 = assay: NCI 60 five-dose screen CAKI-1; type: cell-based; settings: Homo sapiens, five-dose
COLO 205 = assay: NCI 60 five-dose screen COLO 205; type: cell-based; settings: Homo sapiens, five-dose
M14 = assay: NCI 60 five-dose screen M14; type: cell-based; settings: Homo sapiens, five-dose
HS 578T = assay: NCI 60 five-dose screen HS 578T; type: cell-based; settings: Homo sapiens, five-dose
HOP-92 = assay: NCI 60 five-dose screen HOP-92; type: cell-based; settings: Homo sapiens, five-dose
MCF7 = assay: NCI 60 five-dose screen MCF7; type: cell-based; settings: Homo sapiens, five-dose
A498 = assay: NCI 60 five-dose screen A498; type: cell-based; settings: Homo sapiens, five-dose
HCC-2998 = assay: NCI 60 five-dose screen HCC-2998; type: cell-based; settings: Homo sapiens, five-dose
SR = assay: NCI 60 five-dose screen SR; type: cell-based, human; settings: five-dose
NCI-H322M = assay: NCI 60 five-dose screen NCI-H322M; type: cell-based; settings: Homo sapiens, five-dose
HCT-116 = assay: NCI 60 five-dose screen HCT-116; type: cell-based; settings: Homo sapiens, five-dose
UACC-62 = assay: NCI 60 five-dose screen UACC-62; type: cell-based; settings: Homo sapiens, five-dose
NCI/ADR-RES = assay: NCI 60 five-dose screen NCI/ADR-RES; type: cell-based; settings: Homo sapiens, five-dose
NCI-H522 = assay: NCI 60 five-dose screen NCI-H522; type: cell-based; settings: Homo sapiens, five-dose
IGROV1 = assay: NCI 60 five-dose screen IGROV1; type: cell-based; settings: Homo sapiens, IGROV-1, five-dose
full NCI 60 cell panel = assay: NCI 60 Cell One-dose screen; type: cell-based, human; settings: single high dose 10^−5 M, NCI 60 panel
How it was run: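 Single dose of 10^−5 M across the full NCI-60 human tumour cell panel. Value is percent growth relative to no-drug control and to time-zero cell number: 0–100 means growth inhibition, 0 means no net growth, below 0 means lethality (−100 = all cells dead).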

ACHN = assay: NCI 60 five-dose screen ACHN; type: cell-based; settings: Homo sapiens, five-dose
SF-295 = assay: NCI 60 five-dose screen SF-295; type: cell-based; settings: Homo sapiens, five-dose
UACC-257 = assay: NCI 60 five-dose screen UACC-257; type: cell-based; settings: Homo sapiens, five-dose
HT29 = assay: NCI 60 five-dose screen HT29; type: cell-based; settings: Homo sapiens, HT-29, five-dose
U251 = assay: NCI 60 five-dose screen U251; type: cell-based; settings: Homo sapiens, U-251, five-dose
CCRF-CEM = assay: NCI 60 five-dose screen CCRF-CEM; type: cell-based; settings: Homo sapiens, five-dose
[1] = read-out: LC50 (the source's name) (converted)
[2] = read-out: LC50 (the source's name)

## FC(F)(F)c1cc2c(Cl)ncnc2n1CCN1CCOCC1 [NUCC-0226680]
KM12
  GI50: 35.5 µM
  IC50: 51.3 µM
  IC (TGI): 100 µM
KM12; [1]
  CC50: ≥ 100 µM
OVCAR-8
  GI50: 8.51 µM
  IC50: 13.8 µM
  IC (TGI): 29.5 µM
OVCAR-8; [1]
  CC50: 93.3 µM
CAKI-1
  GI50: 27.5 µM
  IC50: 56.2 µM
  IC (TGI): 100 µM
CAKI-1; [1]
  CC50: ≥ 100 µM
COLO 205
  GI50: 26.3 µM
  IC50: 58.9 µM
  IC (TGI): 100 µM
COLO 205; [1]
  CC50: ≥ 100 µM
M14
  GI50: 11.5 µM
  IC50: 20.4 µM
  IC (TGI): 36.3 µM
M14; [1]
  CC50: ≥ 100 µM
HS 578T
  GI50: 16.6 µM
  IC50: 100 µM
  IC (TGI): 58.9 µM
HS 578T; [2]
  CC50: ≥ 100 µM
HOP-92
  GI50: 19.1 µM
  IC50: 79.4 µM
  IC (TGI): 60.3 µM
HOP-92; [1]
  CC50: ≥ 100 µM
MCF7
  GI50: 25.1 µM
  IC50: 35.5 µM
  IC (TGI): 100 µM
MCF7; [1]
  CC50: ≥ 100 µM
A498
  GI50: 100 µM
  IC50: 100 µM
  IC (TGI): 100 µM
A498; [1]
  CC50: ≥ 100 µM
HCC-2998
  GI50: 2.24 µM
  IC50: 4.07 µM
  IC (TGI): 5.13 µM
HCC-2998; [1]
  CC50: 15.8 µM
SR; Homo sapiens
  GI50: 2.88 µM
  IC50: 4.37 µM
SR; Homo sapiens, read-out: LC50 (the source's name)
  CC50: ≥ 100 µM
SR
  TGI: 4.9 −log[M]
NCI-H322M
  GI50: 15.8 µM
  IC50: 41.7 µM
  IC (TGI): 53.7 µM
NCI-H322M; [1]
  CC50: ≥ 100 µM
HCT-116
  GI50: 4.68 µM
  IC50: 5.62 µM
  IC (TGI): 100 µM
HCT-116; [1]
  CC50: ≥ 100 µM
UACC-62
  GI50: 10.7 µM
  IC50: 20.9 µM
  IC (TGI): 32.4 µM
UACC-62; [1]
  CC50: 97.7 µM
NCI/ADR-RES
  GI50: 30.2 µM
  IC50: 57.5 µM
  IC (TGI): 100 µM
NCI/ADR-RES; [1]
  CC50: ≥ 100 µM
NCI-H522
  GI50: 1.48 µM
  IC50: 2.95 µM
  IC (TGI): 3.31 µM
IGROV1
  GI50: 2.51 µM
  IC50: 3.98 µM
  IC (TGI): 7.59 µM
IGROV1; [1]
  CC50: 35.5 µM
Full NCI 60 cell panel
  growth inhibition in the One-Dose Screen: significant growth inhibition
ACHN
  GI50: 7.59 µM
  IC50: 15.5 µM
  IC (TGI): 100 µM
ACHN; [1]
  CC50: ≥ 100 µM
SF-295
  GI50: 24.5 µM
  IC50: 45.7 µM
  IC (TGI): 100 µM
SF-295; [1]
  CC50: ≥ 100 µM
UACC-257
  GI50: 10.5 µM
  IC50: 23.4 µM
  IC (TGI): 30.2 µM
UACC-257; [1]
  CC50: 87.1 µM
HT29
  GI50: 27.5 µM
  IC50: 36.3 µM
  IC (TGI): 100 µM
HT29; [1]
  CC50: ≥ 100 µM
U251
  GI50: 14.8 µM
  IC50: 24 µM
  IC (TGI): 38.9 µM
U251; [1]
  CC50: ≥ 100 µM
CCRF-CEM
  GI50: 16.6 µM
  IC50: 35.5 µM
  IC (TGI): 100 µM
CCRF-CEM; [2]
  CC50: ≥ 100 µM
